Measurements reported in patent US8383581B2, “Short-chain peptides as parathyroid hormone (PTH) receptor agonist” (Cadila Healthcare Limited, priority 2009, dated 2013).
Where a SMILES comes first, the peptide text is derived from it. [ ]: non-standard residue; d: D form. ξ: configuration not given here. hArg = N=C(N)NCCCC[C@H](N)C(=O)O; ξαMeF = CC(N)(Cc1ccccc1)C(=O)O; Nle = CCCC[C@H](N)C(=O)O; Ac3c = NC1(C(=O)O)CC1; Aib = CC(C)(N)C(=O)O

Assays:
Format in all cases: in vitro ADME
[1] = Stability of peptides in human liver microsomes
Description: (§1) b) Stability of Peptides in Human Plasma, Simulated Gastric Fluid, Intestinal Fluid and Liver Microsomes (Ex-Vivo): Different short-chain peptides (final concentration 2 μM) were incubated with either pooled human plasma (7.5 μL) or simulated gastric fluid (pH 1.5; composition HCl, NaCl and Pepsin) or simulated intestinal fluid (pH 7.5) or human liver microsomes, for 0, 2, 4, 6, 12 and 24 h (37° C.; 50 mM triethanolamine-HCl buffer; pH 7.8). Concentrations of human plasma/simulated gastric fluid/simulated intestinal fluid/human liver microsomes were selected in preliminary experiments to provide degradation of approximately 50% of PTH(1-34) within 1 h, therefore allowing time-dependent degradation to be viewed over 24 h. Reactions were terminated by the addition of TFA/H2O ([…], 10% (v/v)). The reaction products were then applied to a Vydac C18 analytical column (4.6×250-mm) and the major degradation fragment separated from intact short-chain peptides. The column was equilibrated with TFA/H20, at a flow rate of 1 mL/min. Using 0.1% (v/v) TFA in 70% acetonitrile/H2O, the concentration of acetonitrile in the eluting solvent was raised from 0% to 28% over 10 min and from 28% to 42% over 30 min. The absorbance was monitored at 206 nm using UV detector and peaks were collected manually prior to ESI-MS analysis. Area under the curve was measured for test peptides and their metabolites and percentage degradation were calculated at each time point over a period of 24 h. Stability study results of selected peptides, in human plasma, simulated gastric fluid, intestinal fluid and liver microsomes (in vitro) are listed in Table 4.

[2] = Stability of peptides in human plasma
Description: as §1

[3] = Stability of peptides in simulated gastric fluid (pH 1.5; HCl, NaCl and Pepsin); conditions: for half-life: simulated gi fluid
Description: as §1

[4] = Stability of peptides in simulated intestinal fluid (pH 7.5)
Description: as §1

[5] = human, microsomes, 2 μM, pH 7.8
[6] = simulated gastric fluid, 2 μM, pH 1.5
[7] = simulated intestinal fluid, 2 μM, pH 7.5

Structure (SMILES) | half-life ([1]; human, microsomes) [min] | % degradation of peptides in 24 h when incubated with liver microsomes [1, 5] [%] | half-life (t1/2) in human plasma ([2]; human, plasma) | metabolised at 24 h, 2 μM ([2]; human, plasma, pH 7.8) [%] | % degradation of peptides in 24 h when incubated with simulated gastric fluid [3, 6] [%] | half-life ([3]; pH 1.5) [min] | half-life ([4]; simulated gi fluid, pH 7.5) [min] | % degradation of peptides in 24 h when incubated with simulated intestinal fluid [4, 7] [%] | half-life ([2]; human, plasma) [min] | further results
CCCCC(C)(NC(=O)[C@H](CC(C)C)NC(=O)[C@H](CCC(N)=O)NC(=O)[C@@H](NC(=O)[C@H](CCC(=O)O)NC(=O)C(C)(C)NC(=O)[C@@H](NC(=O)C1(NC(=O)[C@@H](N)C(C)C)CCCC1)C(C)C)[C@@H](C)CC)C(=O)N[C@@H](Cc1c[nH]cn1)C(=O)N[C@@H](CCC(N)=O)C(=O)N[C@@H](CCCCNC(=N)N)C(=O)N[C@@H](C)C(=O)N[C@@H](CCCCNC(=N)N)C(=O)NC(Cc1ccc(-c2ccc(OC)cc2CC)cc1)C(=O)NC(C)(CCCc1ccccc1)C(N)=O (single isomer, unassigned) [Seq. ID. 925] | 30 | 100 | (9) h | 78 | 100 | 30 | 30 | 100 |  | 
CC[C@H](C)[C@H](NC(=O)[C@H](CCC(=O)O)NC(=O)C(C)(C)NC(=O)[C@@H](NC(=O)C1(NC(=O)[C@@H](N)C(C)C)CC1)C(C)C)C(=O)N[C@@H](CCC(N)=O)C(=O)N[C@@H](CC(C)C)C(=O)NC(C)(CCSC)C(=O)N[C@@H](Cc1c[nH]cn1)C(=O)N[C@@H](CCC(N)=O)C(=O)N[C@@H](CCCCNC(=N)N)C(=O)N[C@@H](C)C(=O)N[C@@H](CCCCNC(=N)N)C(=O)NC(C)(Cc1c[nH]c2ccccc12)C(=O)NC(C)(CCCc1ccccc1)C(N)=O (single isomer, unassigned) [Seq. ID. 950] |  | 35 |  | 0 | 00 | > 1440 | > 1440 | 00 | > 1440 | half-life (t1/2) in liver microsomes ([1]; human, microsomes): (5) h
CC[C@H](C)[C@H](NC(=O)[C@H](CCC(=O)O)NC(=O)[C@H](CO)NC(=O)[C@@H](NC(=O)[C@@H](N)CO)C(C)C)C(=O)N[C@@H](CCC(N)=O)C(=O)N[C@@H](CC(C)C)C(=O)N[C@@H](CCSC)C(=O)N[C@@H](Cc1cnc[nH]1)C(=O)N[C@@H](CC(N)=O)C(=O)N[C@@H](CC(C)C)C(=O)NCC(=O)N[C@@H](CCCCN)C(=O)N[C@@H](Cc1cnc[nH]1)C(=O)N[C@@H](CC(C)C)C(=O)N[C@@H](CC(N)=O)C(=O)N[C@@H](CO)C(=O)N[C@@H](CCSC)C(=O)N[C@@H](CCC(=O)O)C(=O)N[C@@H](CCCN=C(N)N)C(=O)N[C@H](C(=O)N[C@@H](CCC(=O)O)C(=O)N[C@@H](Cc1c[nH]c2ccccc12)C(=O)N[C@@H](CC(C)C)C(=O)N[C@@H](CCCN=C(N)N)C(=O)N[C@@H](CCCCN)C(=O)N[C@@H](CCCCN)C(=O)N[C@@H](CC(C)C)C(=O)N[C@@H](CCC(N)=O)C(=O)N[C@@H](CC(=O)O)C(=O)N[C@H](C(=O)N[C@@H](Cc1cnc[nH]1)C(=O)N[C@@H](CC(N)=O)C(=O)N[C@@H](Cc1ccccc1)C(=O)O)C(C)C)C(C)C [PTH(1-34), reference compound] |  |  |  |  |  |  |  |  |  | % degradation of peptides in 24 h when incubated with liver microsomes ([1]; human liver microsomes, 37° C., peptide 2 μM): 100%; half-life ([1]; human liver microsomes, 37° C., peptide 2 μM, read-out: half-life (t1/2) in liver microsomes): 6 min; metabolised at 1 h ([1]; pH 7.8, human liver microsomes, within 1 h, 37° C., preliminary experiments, read-out: degradation): ~50%; % degradation of peptides in 24 h when incubated with human plasma ([2]; 24 h, human plasma, 37° C., peptide 2 μM): 97%; half-life ([2]; human plasma, 37° C., peptide 2 μM, read-out: half-life (t1/2) in human plasma): 30 min; metabolised at 1 h ([2]; pH 7.8, human plasma, within 1 h, 37° C., preliminary experiments, read-out: degradation): ~50%; % degradation of peptides in 24 h when incubated with simulated gastric fluid ([3]; simulated gastric fluid pH 1.5, 37° C., peptide 2 μM): 100%; metabolised at 1 h ([3]; pH 1.5, simulated gastric fluid, within 1 h, 37° C., preliminary experiments, read-out: degradation): ~50%; half-life ([3]; simulated gastric fluid pH 1.5, 37° C., peptide 2 μM, read-out: half-life (t1/2) in simulated gastric fluid): 6 min; % degradation of peptides in 24 h when incubated with simulated intestinal fluid ([4]; simulated intestinal fluid pH 7.5, 37° C., peptide 2 μM): 100%; metabolised at 1 h ([4]; pH 7.5, simulated intestinal fluid, within 1 h, 37° C., preliminary experiments, read-out: degradation): ~50%; half-life ([4]; simulated gi fluid, simulated intestinal fluid pH 7.5, 37° C., peptide 2 μM, read-out: half-life (t1/2) in simulated intestinal fluid): 12 min
CCCC[C@H](NC(=O)[C@H](CC(C)C)NC(=O)[C@H](CCC(N)=O)NC(=O)[C@@H](NC(=O)[C@H](CCC(=O)O)NC(=O)C(C)(C)NC(=O)[C@@H](NC(=O)C(C)(C)N)C(C)C)[C@@H](C)CC)C(=O)N[C@@H](Cc1c[nH]cn1)C(=O)N[C@@H](CCC(N)=O)C(=O)N[C@@H](CCCCNC(=N)N)C(=O)NC(C)(C)C(=O)N[C@@H](CCCCN)C(=O)NC(C)(Cc1ccccc1)C(N)=O (some centres unmarked) [Seq. ID. 10] (H-[Aib]V[Aib]EIQL[Nle]HQ[hArg][Aib]K[ξαMeF]-NH2) | 30 | 100 | (9) h | 70 | 100 | 30 | 30 | 100 |  | 
CC[C@H](C)[C@H](NC(=O)[C@H](CCC(=O)O)NC(=O)C(C)(C)NC(=O)[C@@H](NC(=O)C1(N)CC1)C(C)C)C(=O)N[C@@H](CCC(N)=O)C(=O)N[C@@H](CC(C)C)C(=O)N[C@@H](CCSC)C(=O)N[C@@H](Cc1c[nH]cn1)C(=O)N[C@@H](CCC(N)=O)C(=O)N[C@@H](CCCCNC(=N)N)C(=O)NC(C)(C)C(=O)N[C@@H](CCCCN)C(=O)NC(C)(Cc1ccccc1)C(N)=O (some centres unmarked) [Seq. ID. 14] (H-[Ac3c]V[Aib]EIQLMHQ[hArg][Aib]K[ξαMeF]-NH2) | 120 | 77 |  | 69 | 11 | 420 |  | 43 | 480 | half-life (t1/2) in simulated intestinal fluid ([4]; simulated gi fluid, pH 7.5): (6) h
